The assay can be described thus: Repairing effect: maximum tension of hair fibers after 3 discoloration processes, composition applied in a leave-in base. To be noted: synergy test, after 3 discolorations; compositions at 5% in leave-in base; FIG. 11.

Molecules are shown by their SMILES.

Results on 1 molecule are retold here after patent US20240122829A1, “HAIR COMPOSITIONS, HAIR FORMULATIONS, PROCESSES OF PRODUCTION THEREOF, USES AND METHODS OF HAIR TREATMENT” (CHEMYUNION LTDA., priority 2021, published 2024).

Experimental: To evaluate the effectiveness of the repairing effect, tests of maximum tension were performed after 2 or 3 discoloration processes in hair samples, composed by a naïve control group (without discoloration process), a discolored control group, a group discolored with application of the Benchmark 1 composition and a group containing the compositions of the present patent application after two or three discoloration processes, the composition being applied in a leave-in base containing 1% or 5% of the composition, this composition being the Base A or Base B, while Benchmark consisted of a ready-to-use cosmetic base (Benchmark 2 or Benchmark 3).
The leave-in base comprises: 3%-5% cetostearyl alcohol 30/70; 0.8-2.5% cetyl alcohol 0.8-2.5%; 0.05%-0.1% disodium EDTA; 0.8%-2.5% CCTA cetyl trimethyl ammonium chloride; 0.25%-1% preservatives and anti-microbial agents and water q.s. […]
After the discoloration process, a standardized amount of Leave-in was applied to the strands with or without (control) 1% or 5% of the hair composition of the present patent application on damp hair, and this composition may be the Base A or Base B or the actives making up Base B, while the benchmark consisted of a ready-to-use cosmetic base (Benchmark 2 or Benchmark 3). […]

Turning to `N=C(N)NCCC[C@H](N)C(=O)O` [arginine], the “increase in resistance in relation to the discolored strand” value is recorded as 3.9%.
